In PMC10945555, “Improving Activity of New Arylurea Agents against Multidrug-Resistant and Biofilm-Producing Staphylococcus epidermidis” (ACS Medicinal Chemistry Letters, 2024):

Tested on: biofilm-producing Staphylococcus epidermidis strains
Experiment: Biofilm eradication (MBEC Assay Kit)
Type: cell-based
Details: for MBEC50: Table S4 strains
[1] = S. epidermidis ATCC 35984 (Table S4)

SMILES: O=S(=O)(NC1CCN(CCC(Oc2ccc(C(F)(F)F)cc2)c2ccccc2)CC1)c1cccc(Cl)c1 (stereo not drawn) [Compound 12]
- MBEC [1]: 31.25 µg/mL
- MBEC50: 125 µg/mL
- MBEC (clinical strain 1 (Table S4)): 125 µg/mL
- MBEC (clinical strain 2 (Table S4)): 125 µg/mL
- MBEC (clinical strain 3 (Table S4)): 250 µg/mL
- MBEC (clinical strain 4 (Table S4)): 125 µg/mL
- MBEC (clinical strain 5 (Table S4)): 125 µg/mL
- MBEC (clinical strain 6 (Table S4)): 125 µg/mL
- MBEC (clinical strain 7 (Table S4)): 125 µg/mL
- MBEC (clinical strain 8 (Table S4)): 62.5 µg/mL
- MBEC (clinical strain 9 (Table S4)): 250 µg/mL
- MBEC (clinical strain 11 (Table S4)): 125 µg/mL
- MBEC (clinical strain 12 (Table S4)): 125 µg/mL
- MBEC (clinical strain 13 (Table S4)): 62.5 µg/mL
- MBEC (clinical strain 15 (Table S4)): 125 µg/mL
- MBEC (clinical strain 16 (Table S4)): 62.5 µg/mL
- MBEC (clinical strain 17 (Table S4)): 62.5 µg/mL
- MBEC (clinical strain 19 (Table S4)): 31.25 µg/mL
- MBEC (clinical strain 21 (Table S4)): 125 µg/mL
- MBEC (clinical strain 22 (Table S4)): 125 µg/mL
- MBEC (clinical strain 23 (Table S4)): 31.25 µg/mL
- MBEC (clinical strain 25 (Table S4)): 31.25 µg/mL
- MBEC (clinical strain 26 (Table S4)): 250 µg/mL
- MBEC (clinical strain 27 (Table S4)): 250 µg/mL
- MBEC (clinical strain 28 (Table S4)): 125 µg/mL
- MBEC (clinical strain 29 (Table S4)): 125 µg/mL
- MBEC (clinical strain 30 (Table S4)): 125 µg/mL
- MBEC (clinical strain 33 (Table S4)): 125 µg/mL
- MBEC (clinical strain 35 (Table S4)): 125 µg/mL
- MBEC (clinical strain 36 (Table S4)): 125 µg/mL
- MBEC (clinical strain 37 (Table S4)): 125 µg/mL
- MBEC (clinical strain 39 (Table S4)): 31.25 µg/mL
- MBEC (clinical strain 40 (Table S4)): 125 µg/mL
- MBEC (clinical strain 41 (Table S4)): 125 µg/mL
- MBEC (clinical strain 42 (Table S4)): 125 µg/mL
- MBEC (clinical strain 43 (Table S4)): 250 µg/mL
- MBEC (clinical strain 44 (Table S4)): 31.25 µg/mL
- MBEC (clinical strain 45 (Table S4)): 125 µg/mL
- MBEC (clinical strain 46 (Table S4)): 125 µg/mL
- MBEC (clinical strain 47 (Table S4)): 62.5 µg/mL
- MBEC (clinical strain 49 (Table S4)): 31.25 µg/mL
- MBEC (clinical strain 51 (Table S4)): 250 µg/mL
- MBEC (clinical strain 55 (Table S4)): 125 µg/mL
- MBEC (clinical strain 58 (Table S4)): 125 µg/mL
- MBEC (clinical strain 59 (Table S4)): 125 µg/mL
- MBEC (clinical strain 65 (Table S4)): 125 µg/mL
- MBEC (clinical strain 66 (Table S4)): 125 µg/mL
- MBEC (clinical strain 67 (Table S4)): 125 µg/mL
- MBEC (clinical strain 70 (Table S4)): 250 µg/mL
- MBEC (clinical strain 73 (Table S4)): 31.25 µg/mL
- MBEC (clinical strain 74 (Table S4)): 125 µg/mL
- MBEC (clinical strain 75 (Table S4)): 31.25 µg/mL
- MBEC (clinical strain 78 (Table S4)): 31.25 µg/mL
- MBEC (clinical strain 79 (Table S4)): 31.25 µg/mL

SMILES: O=S(=O)(NC1CCN(CCC(Oc2ccc(C(F)(F)F)cc2)c2cccs2)CC1)c1cccc(Cl)c1 (stereo not drawn) [Compound 14]
- MBEC [1]: 31.25 µg/mL
- MBEC50: 125 µg/mL
- MBEC (clinical strain 1 (Table S4)): 125 µg/mL
- MBEC (clinical strain 2 (Table S4)): 125 µg/mL
- MBEC (clinical strain 3 (Table S4)): 250 µg/mL
- MBEC (clinical strain 4 (Table S4)): 125 µg/mL
- MBEC (clinical strain 5 (Table S4)): 125 µg/mL
- MBEC (clinical strain 6 (Table S4)): 125 µg/mL
- MBEC (clinical strain 7 (Table S4)): 125 µg/mL
- MBEC (clinical strain 8 (Table S4)): 31.25 µg/mL
- MBEC (clinical strain 9 (Table S4)): 250 µg/mL
- MBEC (clinical strain 11 (Table S4)): 250 µg/mL
- MBEC (clinical strain 12 (Table S4)): 125 µg/mL
- MBEC (clinical strain 13 (Table S4)): 62.5 µg/mL
- MBEC (clinical strain 15 (Table S4)): 125 µg/mL
- MBEC (clinical strain 16 (Table S4)): 62.5 µg/mL
- MBEC (clinical strain 17 (Table S4)): 62.5 µg/mL
- MBEC (clinical strain 19 (Table S4)): 31.25 µg/mL
- MBEC (clinical strain 21 (Table S4)): 125 µg/mL
- MBEC (clinical strain 22 (Table S4)): 125 µg/mL
- MBEC (clinical strain 23 (Table S4)): 15.6 µg/mL
- MBEC (clinical strain 25 (Table S4)): 31.25 µg/mL
- MBEC (clinical strain 26 (Table S4)): 250 µg/mL
- MBEC (clinical strain 27 (Table S4)): 250 µg/mL
- MBEC (clinical strain 28 (Table S4)): 125 µg/mL
- MBEC (clinical strain 29 (Table S4)): 125 µg/mL
- MBEC (clinical strain 30 (Table S4)): 125 µg/mL
- MBEC (clinical strain 33 (Table S4)): 125 µg/mL
- MBEC (clinical strain 35 (Table S4)): 125 µg/mL
- MBEC (clinical strain 36 (Table S4)): 125 µg/mL
- MBEC (clinical strain 37 (Table S4)): 125 µg/mL
- MBEC (clinical strain 39 (Table S4)): 31.25 µg/mL
- MBEC (clinical strain 40 (Table S4)): 125 µg/mL
- MBEC (clinical strain 41 (Table S4)): 125 µg/mL
- MBEC (clinical strain 42 (Table S4)): 125 µg/mL
- MBEC (clinical strain 43 (Table S4)): 250 µg/mL
- MBEC (clinical strain 44 (Table S4)): 62.5 µg/mL
- MBEC (clinical strain 45 (Table S4)): 125 µg/mL
- MBEC (clinical strain 46 (Table S4)): 125 µg/mL
- MBEC (clinical strain 47 (Table S4)): 62.5 µg/mL
- MBEC (clinical strain 49 (Table S4)): 31.25 µg/mL
- MBEC (clinical strain 51 (Table S4)): 125 µg/mL
- MBEC (clinical strain 55 (Table S4)): 125 µg/mL
- MBEC (clinical strain 58 (Table S4)): 125 µg/mL
- MBEC (clinical strain 59 (Table S4)): 125 µg/mL
- MBEC (clinical strain 65 (Table S4)): 125 µg/mL
- MBEC (clinical strain 66 (Table S4)): 125 µg/mL
- MBEC (clinical strain 67 (Table S4)): 125 µg/mL
- MBEC (clinical strain 70 (Table S4)): 250 µg/mL
- MBEC (clinical strain 73 (Table S4)): 31.25 µg/mL
- MBEC (clinical strain 74 (Table S4)): 125 µg/mL
- MBEC (clinical strain 75 (Table S4)): 31.25 µg/mL
- MBEC (clinical strain 78 (Table S4)): 31.25 µg/mL
- MBEC (clinical strain 79 (Table S4)): 31.25 µg/mL
